Measurements published in US20220323406A1, “METHODS AND COMPOSITIONS FOR DIFFERENTIATING STEM CELLS” (Massachusetts Institute of Technology, priority 2019, published 2022).
Structures can show the parent of a compound that is named as a salt.

Tests used:
ENR+CD organoids = assay: Primary screen: ATP (CellTiter-Glo 3D, CTG) cell number/viability, 2.5-D 384-well ENR+CD organoids; conditions: primary screen; for Z.CTG: standard z score;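 for all read-outs here: compounds given at plating and again on day 3 over a 6-day differentiation from ENR+CV stem-cell-enriched precursors, ATP measured on day 6, plate median as control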
[1] = system: ENR+CD organoids (ISC to Paneth cell differentiation); assay: Primary screen: CCh-stimulated lysozyme secretion LYZ.S, 2.5-D 384-well ENR+CD organoid differentiation; assay type: cell-based, mouse; conditions: primary screen
From the text: (§1) High-throughput screening.

[2] = system: ENR+CD organoids (ISC to Paneth cell differentiation); assay: Primary screen: basal (non-stimulated) lysozyme secretion LYZ.NS, 2.5-D 384-well ENR+CD organoid differentiation; assay type: cell-based, mouse
From the text: as §1

[3] = dose 0.08 uM, FC relative to plate median
[4] = dose 0.40 uM, FC relative to plate median
[5] = dose 2.00 uM, FC relative to plate median
[6] = dose 10.00 uM, FC relative to plate median
[7] = primary screen, dose 0.08 uM, FC relative to plate median
[8] = primary screen, dose 0.08 uM, standard z score
[9] = primary screen, dose 0.40 uM, FC relative to plate median
[10] = primary screen, dose 0.40 uM, standard z score
[11] = primary screen, dose 2.00 uM, FC relative to plate median
[12] = primary screen, dose 2.00 uM, standard z score
[13] = primary screen, dose 10.00 uM, FC relative to plate median
[14] = primary screen, dose 10.00 uM, standard z score

C[C@@H](NCCCc1cccc(C(F)(F)F)c1)c1cccc2ccccc12 [Cinacalcet HCl]
Dose.FC.CTG (ENR+CD organoids; dose 0.08 uM): −0.444 log2 fold change
Dose.FC.CTG (ENR+CD organoids; dose 0.40 uM): −0.298 log2 fold change
Dose.FC.CTG (ENR+CD organoids; dose 2.00 uM): −0.012 log2 fold change
Dose.FC.CTG (ENR+CD organoids; dose 10.00 uM): −0.451 log2 fold change
Dose.FC.LYZ.S ([1]; dose 0.08 uM): −0.084 log2 fold change
Dose.FC.LYZ.S ([1]; dose 0.40 uM): 0.039 log2 fold change
Dose.FC.LYZ.S ([1]; dose 2.00 uM): −0.025 log2 fold change
Dose.FC.LYZ.S ([1]; dose 10.00 uM): −0.130 log2 fold change
Dose.FC.LYZ.NS ([2]; primary screen, dose 0.08 uM): −0.062 log2 fold change
Dose.FC.LYZ.NS ([2]; primary screen, dose 0.40 uM): −0.023 log2 fold change
Dose.FC.LYZ.NS ([2]; primary screen, dose 2.00 uM): −0.022 log2 fold change
Dose.FC.LYZ.NS ([2]; primary screen, dose 10.00 uM): −0.091 log2 fold change
Z.LYZ.NS ([2]; primary screen, standard z score, dose 0.08 uM): −0.536
Z.LYZ.NS ([2]; primary screen, standard z score, dose 0.40 uM): −0.202
Z.LYZ.NS ([2]; primary screen, standard z score, dose 2.00 uM): −0.189
Z.LYZ.NS ([2]; primary screen, standard z score, dose 10.00 uM): −0.790

O=C(NCc1cccc(O)c1)Nc1nc(-c2ccncc2)cs1 [RKI-1447]
Dose.FC.CTG (ENR+CD organoids; [3]): −0.397 log2 fold change
Z.CTG (ENR+CD organoids; dose 0.08 uM): −0.948
Dose.FC.CTG (ENR+CD organoids; [4]): −0.184 log2 fold change
Z.CTG (ENR+CD organoids; dose 0.40 uM): −0.441
Dose.FC.CTG (ENR+CD organoids; [5]): −0.226 log2 fold change
Z.CTG (ENR+CD organoids; dose 2.00 uM): −0.540
Dose.FC.CTG (ENR+CD organoids; [6]): −0.342 log2 fold change
Z.CTG (ENR+CD organoids; dose 10.00 uM): −0.816
Dose.FC.LYZ.S [1, 3]: −0.056 log2 fold change
Dose.FC.LYZ.S [1, 4]: −0.064 log2 fold change
Dose.FC.LYZ.S [1, 5]: −0.017 log2 fold change
Dose.FC.LYZ.S [1, 6]: −0.297 log2 fold change
Dose.FC.LYZ.NS [2, 7]: −0.006 log2 fold change
Z.LYZ.NS [2, 8]: −0.055
Dose.FC.LYZ.NS [2, 9]: −0.092 log2 fold change
Z.LYZ.NS [2, 10]: −0.803
Dose.FC.LYZ.NS [2, 11]: −0.009 log2 fold change
Z.LYZ.NS [2, 12]: −0.077
Dose.FC.LYZ.NS [2, 13]: −0.183 log2 fold change
Z.LYZ.NS [2, 14]: −1.594

CCC(COC(=O)c1cc(OC)c(OC)c(OC)c1)(c1ccccc1)N(C)C (centres unmarked) [Trimebutine]
Dose.FC.CTG (ENR+CD organoids; dose 0.08 uM): 0.007 log2 fold change
Dose.FC.CTG (ENR+CD organoids; dose 0.40 uM): −0.202 log2 fold change
Dose.FC.CTG (ENR+CD organoids; dose 2.00 uM): −1.008 log2 fold change
Dose.FC.CTG (ENR+CD organoids; dose 10.00 uM): −1.066 log2 fold change
Dose.FC.LYZ.S ([1]; dose 0.08 uM): 0.000 log2 fold change
Dose.FC.LYZ.S ([1]; dose 0.40 uM): 0.002 log2 fold change
Dose.FC.LYZ.S ([1]; dose 2.00 uM): −0.277 log2 fold change
Dose.FC.LYZ.S ([1]; dose 10.00 uM): −0.332 log2 fold change
Dose.FC.LYZ.NS ([2]; primary screen, dose 0.08 uM): −0.014 log2 fold change
Z.LYZ.NS (standard z score) ([2]; primary screen, dose 0.08 uM): −0.121
Dose.FC.LYZ.NS ([2]; primary screen, dose 0.40 uM): −0.019 log2 fold change
Z.LYZ.NS (standard z score) ([2]; primary screen, dose 0.40 uM): −0.166
Dose.FC.LYZ.NS ([2]; primary screen, dose 2.00 uM): −0.202 log2 fold change
Z.LYZ.NS (standard z score) ([2]; primary screen, dose 2.00 uM): −1.763
Dose.FC.LYZ.NS ([2]; primary screen, dose 10.00 uM): −0.214 log2 fold change
Z.LYZ.NS (standard z score) ([2]; primary screen, dose 10.00 uM): −1.863

COc1ccc(C(=O)Nc2sc3c(c2C(N)=O)CCCC3)cc1OC [TCS 359]
Dose.FC.CTG (ENR+CD organoids; [3]): 0.150 log2 fold change
Z.CTG (ENR+CD organoids; dose 0.08 uM): 0.358
Dose.FC.CTG (ENR+CD organoids; [4]): 0.250 log2 fold change
Z.CTG (ENR+CD organoids; dose 0.40 uM): 0.598
Dose.FC.CTG (ENR+CD organoids; [5]): 0.050 log2 fold change
Z.CTG (ENR+CD organoids; dose 2.00 uM): 0.119
Dose.FC.CTG (ENR+CD organoids; [6]): −0.089 log2 fold change
Z.CTG (ENR+CD organoids; dose 10.00 uM): −0.212
Dose.FC.LYZ.S [1, 3]: 0.098 log2 fold change
Dose.FC.LYZ.S [1, 4]: 0.069 log2 fold change
Dose.FC.LYZ.S [1, 5]: −0.006 log2 fold change
Dose.FC.LYZ.S [1, 6]: 0.026 log2 fold change
Dose.FC.LYZ.NS [2, 7]: 0.085 log2 fold change
Z.LYZ.NS [2, 8]: 0.742
Dose.FC.LYZ.NS [2, 9]: 0.058 log2 fold change
Z.LYZ.NS [2, 10]: 0.502
Dose.FC.LYZ.NS [2, 11]: 0.018 log2 fold change
Z.LYZ.NS [2, 12]: 0.156
Dose.FC.LYZ.NS [2, 13]: −0.008 log2 fold change
Z.LYZ.NS [2, 14]: −0.072

C[C@@H](Oc1cc(-n2cnc3ccc(CN4CCN(C)CC4)cc32)sc1C(N)=O)c1ccccc1C(F)(F)F [GSK461364]
Dose.FC.CTG (log2 fold change) (ENR+CD organoids; dose 0.08 uM): 0.160
Z.CTG (standard z score) (ENR+CD organoids; dose 0.08 uM): 0.383
Dose.FC.CTG (log2 fold change) (ENR+CD organoids; dose 0.40 uM): −0.154
Z.CTG (standard z score) (ENR+CD organoids; dose 0.40 uM): −0.368
Dose.FC.CTG (log2 fold change) (ENR+CD organoids; dose 2.00 uM): −0.628
Z.CTG (standard z score) (ENR+CD organoids; dose 2.00 uM): −1.500
Dose.FC.CTG (log2 fold change) (ENR+CD organoids; dose 10.00 uM): −0.621
Z.CTG (standard z score) (ENR+CD organoids; dose 10.00 uM): −1.484
Dose.FC.LYZ.S (log2 fold change) ([1]; dose 0.08 uM): 0.112
Dose.FC.LYZ.S (log2 fold change) ([1]; dose 0.40 uM): −0.093
Dose.FC.LYZ.S (log2 fold change) ([1]; dose 2.00 uM): −0.352
Dose.FC.LYZ.S (log2 fold change) ([1]; dose 10.00 uM): −0.390
Dose.FC.LYZ.NS (log2 fold change) ([2]; primary screen, dose 0.08 uM): 0.078
Z.LYZ.NS (standard z score) ([2]; primary screen, dose 0.08 uM): 0.682
Dose.FC.LYZ.NS (log2 fold change) ([2]; primary screen, dose 0.40 uM): −0.096
Z.LYZ.NS (standard z score) ([2]; primary screen, dose 0.40 uM): −0.834
Dose.FC.LYZ.NS (log2 fold change) ([2]; primary screen, dose 2.00 uM): −0.246
Z.LYZ.NS (standard z score) ([2]; primary screen, dose 2.00 uM): −2.138
Dose.FC.LYZ.NS (log2 fold change) ([2]; primary screen, dose 10.00 uM): −0.287
Z.LYZ.NS (standard z score) ([2]; primary screen, dose 10.00 uM): −2.498
